Reference: patent US11234957B2, “Process for preparing water soluble forskolin” (SciPharm S.à.r.l., priority 2017, dated 2022)
Like-named read-outs stand apart in the source and are kept apart here.

What was measured:
[1] = Maximum solubility of forskolin in aqueous hydroxypropyl-cyclodextrin solutions (Laurenza et al., 1987); type: physicochemical
From the text: Aqueous solutions of forskolin had also been produced by dissolving forskolin in solutions of hydroxypropyl-γ-cyclodextrin.

[2] = cited from earlier work
[3] = tested on: adenylyl cyclase; assay: Cell culture test - cAMP assay; type: cell-based; conditions: versus forskolin dissolved in DMSO; FIG. 4 and summary
Method: The method was performed at the Institute of Pharmacology, Medical University […] of Vienna, Prof. Michael Freissmuth. The forskolin-CD complex was compared with an established method, where forskolin is dissolved and diluted in DMSO. The method has been described previously (Hussain F, et al., BMC Pharmacology 11 (2013), Suppl 2, A6) and is a test platform for the assessment of the chemical induction of stem cells.
Also, the lack of DMSO, which is considered to be a PDE inhibitor (see above), had no […] effect on the results based on preliminary theoretical and practical aspects. The following batches were tested in aliquot molar concentrations as an activator of adenylyl cyclase: […]

C=C[C@@]1(C)CC(=O)[C@]2(O)[C@@]3(C)[C@@H](O)CCC(C)(C)[C@@H]3[C@H](O)[C@H](OC(C)=O)[C@@]2(C)O1 [forskolin, 7-beta-acetoxy-8,13-epoxy-1-alpha, 6-beta, 9-alpha-trihydroxylabd-14-en-11-one]
increase of solubility ([1]; in 40% (w/v) hydroxypropyl-ß-cyclodextrin): approx. 16 fold | increase of solubility ([1]; in 40% (w/v) hydroxypropyl-γ-cyclodextrin): approx. 65 fold | Maximum solubility of forskolin ([2]; in 40% (w/v) aqueous solution of hydroxypropyl-ß-cyclodextrin): 2.5 mM | Maximum solubility of forskolin ([2]; in 40% (w/v) aqueous solution of hydroxypropyl-γ-cyclodextrin): 9.8 mM

COC(=O)[C@@H]1C[C@H](O)C(=O)[C@H]2[C@@]1(C)CC[C@H]1C(=O)O[C@H](c3ccoc3)C[C@]21C [salvinorin B]
activation of adenylyl cyclase [3]: Inactive

COC(=O)[C@@H]1C[C@H](OC(C)=O)C(=O)[C@H]2[C@@]1(C)CC[C@H]1C(=O)O[C@H](c3ccoc3)C[C@]21C [salvinorin A]
activation of adenylyl cyclase [3]: Inactive
